Data from paper PMC6881293, “Nanomolar-potency ‘co-potentiator’ therapy for cystic fibrosis caused by a defined subset of minimal function CFTR mutants” (Scientific Reports, 2019).

Tests used:
W1282X-CFTR = target: T1, W1282X-CFTR (Homo sapiens, UniProt P13569); test: Structure-activity testing of analogs in FRT cells expressing W1282X-CFTR; assay type: cell-based; settings: for Relative Vmax (%): Table 1, 100% Vmax corresponds to 20 μM ASP-11; for EC50: Table 1, piperidine-pyridoindole analogs
T1 construct: expressed in transfected cells
T1 sequence (P13569 1-1281 limits assumed): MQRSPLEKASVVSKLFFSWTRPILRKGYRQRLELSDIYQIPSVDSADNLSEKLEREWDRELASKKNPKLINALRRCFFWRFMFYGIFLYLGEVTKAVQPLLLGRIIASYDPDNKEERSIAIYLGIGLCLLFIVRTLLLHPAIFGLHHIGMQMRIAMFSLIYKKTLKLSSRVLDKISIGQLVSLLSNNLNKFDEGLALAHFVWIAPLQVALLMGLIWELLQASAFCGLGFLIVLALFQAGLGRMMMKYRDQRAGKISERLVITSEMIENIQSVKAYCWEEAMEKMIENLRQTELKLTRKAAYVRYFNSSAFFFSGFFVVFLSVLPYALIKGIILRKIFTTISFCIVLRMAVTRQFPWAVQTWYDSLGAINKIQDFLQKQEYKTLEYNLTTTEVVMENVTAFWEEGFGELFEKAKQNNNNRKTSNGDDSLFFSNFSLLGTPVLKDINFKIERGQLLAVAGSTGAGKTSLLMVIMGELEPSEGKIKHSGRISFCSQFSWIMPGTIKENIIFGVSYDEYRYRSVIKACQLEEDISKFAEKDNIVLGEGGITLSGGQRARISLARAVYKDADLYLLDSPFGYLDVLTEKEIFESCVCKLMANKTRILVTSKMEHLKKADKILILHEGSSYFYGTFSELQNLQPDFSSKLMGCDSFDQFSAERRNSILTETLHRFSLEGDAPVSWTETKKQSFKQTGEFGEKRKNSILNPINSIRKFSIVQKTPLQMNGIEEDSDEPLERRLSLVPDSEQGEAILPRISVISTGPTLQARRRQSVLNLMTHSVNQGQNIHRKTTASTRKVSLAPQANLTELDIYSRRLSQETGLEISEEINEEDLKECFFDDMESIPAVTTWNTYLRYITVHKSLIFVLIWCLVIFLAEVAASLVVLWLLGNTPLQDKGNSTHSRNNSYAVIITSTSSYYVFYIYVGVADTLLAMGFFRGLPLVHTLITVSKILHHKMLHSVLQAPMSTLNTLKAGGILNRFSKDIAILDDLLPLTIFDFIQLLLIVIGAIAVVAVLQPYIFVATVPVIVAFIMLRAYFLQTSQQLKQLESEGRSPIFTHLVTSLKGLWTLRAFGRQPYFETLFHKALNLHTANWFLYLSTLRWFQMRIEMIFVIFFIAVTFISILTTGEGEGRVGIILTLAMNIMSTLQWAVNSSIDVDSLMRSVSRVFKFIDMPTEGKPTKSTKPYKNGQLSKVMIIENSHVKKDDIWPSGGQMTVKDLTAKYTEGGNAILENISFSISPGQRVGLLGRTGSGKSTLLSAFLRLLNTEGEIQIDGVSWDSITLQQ
Experimental: To establish structure-activity relationships, 240 commercially available piperidinepyridoindole analogs and 160 pyrazoloquinoline analogs were tested in FRT cells expressing W1282X-CFTR. In general, the methoxy substituent on the 4-position (R^3) on the pyridoindole ring increased potency (compare A01 vs A534). N-methylation on the pyridoindole ring abolished activity (compare A534 vs A600). For substituent R^1 on the piperidine ring, substituted benzyl gave greatest activity (A061 and A662). Other R^1 substituents, including sulfonamide (A145), alkyl (A764) and carbocyclic (A714), reduced activity. Changing the benzylic carbon from methylene (CH2) to ketone (C=O) abolished activity (A815, A350 and A956).
For R^3, pyridine (D003), benzyl (D035) and substituted methyl-pyrazole (D086) abolished activity. […] The D123 pyrazoloquinoline with R^3 substituted with thiophene-quinoline heterocycle gave the best potency.

Q1313X-CFTR = target: T2, Q1313X-CFTR (Homo sapiens, UniProt P13569); test: Short-circuit current in FRT cells expressing Q1313X-CFTR; assay type: cell-based; settings: Q1313X-CFTR FRT cells, 20 μM forskolin
T2 construct: expressed in transfected cells
T2 sequence (P13569 1-1312 limits assumed): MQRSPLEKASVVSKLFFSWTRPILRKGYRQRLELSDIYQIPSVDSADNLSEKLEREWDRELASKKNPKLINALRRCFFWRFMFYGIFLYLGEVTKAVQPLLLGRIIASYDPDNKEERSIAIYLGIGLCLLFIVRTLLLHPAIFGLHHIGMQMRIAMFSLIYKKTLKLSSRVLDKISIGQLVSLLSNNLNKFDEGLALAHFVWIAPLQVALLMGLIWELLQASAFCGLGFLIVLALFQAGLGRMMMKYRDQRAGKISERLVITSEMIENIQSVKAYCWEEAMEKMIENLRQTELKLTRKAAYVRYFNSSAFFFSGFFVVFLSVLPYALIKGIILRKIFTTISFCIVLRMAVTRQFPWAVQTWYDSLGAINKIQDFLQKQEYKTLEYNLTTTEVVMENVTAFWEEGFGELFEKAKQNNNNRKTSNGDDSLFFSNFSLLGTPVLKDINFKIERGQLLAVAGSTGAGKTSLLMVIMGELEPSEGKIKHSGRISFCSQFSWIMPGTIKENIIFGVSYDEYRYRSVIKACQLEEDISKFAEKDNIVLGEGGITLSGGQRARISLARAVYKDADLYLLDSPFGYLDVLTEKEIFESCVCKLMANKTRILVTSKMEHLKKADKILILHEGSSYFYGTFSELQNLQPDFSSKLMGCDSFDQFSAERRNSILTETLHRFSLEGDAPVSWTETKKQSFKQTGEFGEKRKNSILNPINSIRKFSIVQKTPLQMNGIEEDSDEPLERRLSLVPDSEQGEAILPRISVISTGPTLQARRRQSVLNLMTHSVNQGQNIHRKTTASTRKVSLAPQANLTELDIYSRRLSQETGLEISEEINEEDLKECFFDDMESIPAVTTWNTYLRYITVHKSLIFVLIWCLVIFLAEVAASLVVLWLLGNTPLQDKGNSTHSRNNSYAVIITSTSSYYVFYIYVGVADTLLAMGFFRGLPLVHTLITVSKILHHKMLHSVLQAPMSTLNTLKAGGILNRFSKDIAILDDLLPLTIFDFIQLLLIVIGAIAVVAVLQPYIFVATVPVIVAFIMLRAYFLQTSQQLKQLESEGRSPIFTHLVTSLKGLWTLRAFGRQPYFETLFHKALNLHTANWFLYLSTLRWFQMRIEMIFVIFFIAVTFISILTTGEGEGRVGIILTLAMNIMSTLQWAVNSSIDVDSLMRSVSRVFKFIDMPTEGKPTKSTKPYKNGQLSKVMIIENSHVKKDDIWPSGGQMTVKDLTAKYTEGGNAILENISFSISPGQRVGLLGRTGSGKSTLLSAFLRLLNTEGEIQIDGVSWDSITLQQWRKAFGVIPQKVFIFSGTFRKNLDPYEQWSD
Experimental: As shown in Fig. 1C and summarized in Fig. 2, ASP-11 acted in synergy with VX-770 to increase chloride current in FRT cells expressing the NBD2 mutations I1234del- and Q1313X-CFTR by ~3–9-fold compared to VX-770. I1234del- and Q1313X-CFTR-expressing cells were also treated with VX-809 for 24 hours (to consider the effect of available CFTR therapeutics) with 2–3-fold greater currents observed.
Studies on FRT cells expressing Q1313X-CFTR produced similar data (Fig. 3C).
Figures 5C,D show data in N1303K- and Q1313X-expressing FRT cells.
Short-circuit current was measured on cells cultured on Snapwell clear permeable supports (Corning) as described[10],[11]. Hemichambers were connected to a DVC-1000 voltage clamp (World Precision Instruments Inc., Sarasota, FL) via Ag/AgCl electrodes and 3 M KCl agar bridges for recording of the short-circuit current. For human airway epithelial cells, symmetrical HCO3^−-buffered solutions (in mM: 120 NaCl, 5 KCl, 1 MgCl2, 1 CaCl2, 5 Hepes, 25 NaHCO3, 10 glucose, pH 7.4) for basolateral and apical side were used. For FRT cells, the basolateral membrane was permeabilized with 250 μg/ml amphotericin B, and experiments were done with a chloride gradient using a HCO3^−-buffered solutions (Basolateral (mM): 120 NaCl, 5 KCl, 1 MgCl2, 1 CaCl2, 5 Hepes, 25 NaHCO3, 10 glucose, pH 7.4; apical (mM): 60 NaCl, 60 mM sodium gluconate, 5 KCl, 1 MgCl2, 1 CaCl2, 5 Hepes, 25 NaHCO3, 10 glucose, pH 7.4). All cells were equilibrated with 95% O2, 5% CO2 and maintained at 37 °C during experiments.

short-circuit current response when added after VX-770 (Q1313X-CFTR; 5 μM VX-770, 20 μM P2, P3, P5, ASP-11, 25 μM apigenin)	short-circuit current response when added after GLPG1837 (Q1313X-CFTR; 20 μM GLPG1837)	SMILES	Relative Vmax (%) (W1282X-CFTR)	EC50 (W1282X-CFTR)
–	–	COc1ccc2[nH]c3c(c2c1)CCNC31CCN(S(C)(=O)=O)CC1 [Compound A145]	7%	> 30 µM
–	–	COc1cccc(CN2CCC3(CC2)c2[nH]c4ccccc4c2CCN3C)c1 [Compound A600]	4%	> 30 µM
–	–	COc1cccc(CN2CCC3(CC2)NCCc2c3[nH]c3ccccc23)c1 [Compound A534]	24%	13 µM
–	–	COc1ccc2[nH]c3c(c2c1)CCNC31CCN(C2CCCCC2)CC1 [Compound A714]	18%	> 30 µM
showed synergy	showed synergy	O=c1cc(-c2ccc(O)cc2)oc2cc(O)cc(O)c12 [apigenin]	–	–
–	–	COc1ccc2[nH]c3c(c2c1)CCNC31CCN(C)CC1 [Compound A764]	6%	> 30 µM
–	–	c1ccc(CN2CCC3(CC2)NCCc2c3[nH]c3ccccc23)cc1 [Compound A357]	31%	16 µM
–	–	COc1ccc2[nH]c3c(c2c1)CCNC31CCN(Cc2ccc(F)c(F)c2)CC1 [Compound A662]	100%	2.6 µM
